These results are taken from publication PMC10996005, “Identification and Development of Cyclic Peptide Inhibitors of Hypoxia Inducible Factors 1 and 2 That Disrupt Hypoxia-Response Signaling in Cancer Cells” (Journal of the American Chemical Society, 2024).

Assay [1] concerns CAIX and VEGF genes in MCF-7 cells. Nature of the assay: qPCR of hypoxia-response genes in MCF-7 cells. The class given is cell-based. The note with it: hypoxic MCF-7 cells, 2 μM. The procedure: (§1) The effect of our lead inhibitor on hypoxia-response signaling was measured by qPCR in cancer cell lines. Cells were treated with either 2 μM of an analogue of the HIF-2-specific inhibitor belzutifan, PT2399 (control), or 50 μM of cyclo-CRLII(4-iodo)F, incubated in hypoxia for […], and the levels of the hypoxia-response genes CAIX([41],[42]) and VEGF([43]) were measured by qPCR. We observed a 51% drop in CAIX transcription and a 43% drop in VEGF transcription in hypoxic MCF-7 (breast cancer) cells treated with 50 μM of cyclo-CRLII(4-iodo)F versus hypoxic MCF-7 cells treated with DMSO only (Figure 6e). […] We also observed a 49% drop in CAIX expression in hypoxic HeLa (cervical cancer) cells treated with cyclo-CRLII(4-iodo)F (Figure S9b). […] We observed a 35% drop in HIF-2-driven VEGF transcription in 786-O cells treated with 50 μM of cyclo-CRLII(4-iodo)F compared to a 50% decrease in 786-O cells treated with PT2399. […]
(§2) Realtime PCR (qPCR) Assay
(§3) Cells were plated on 6cm dishes at 80% confluency and incubated overnight under normoxic conditions. The cells were then treated with compound and incubated for 18 hours in hypoxic conditions. After treatment, the cells were washed with PBS and lysed under hypoxic conditions. The total RNA was extracted from the cells using a commercial RNA extraction kit (Fisher Scientific) following the manufacturer's instructions. A commercial reverse transcription kit (Promega) was used to generate cDNA. The MyTaq™ Mix master mix and appropriate primers targeting CAIX and VEGF were used to perform the qPCR reaction using a qPCR machine (Bio-Rad).
A general note: Quantitative PCR measures a nucleic acid by following its amplification.

Assay [2] relates to CAIX and VEGF genes in Panc-1 cells. The assay can be described thus: qPCR of hypoxia-response genes in Panc-1 cells. The format is cell-based. Particulars: hypoxic Panc-1 cells, 2 μM. On the procedure: as §1, §2, §3
The subject of another assay is VEGF gene in 786-O cells. Nature of the assay: qPCR of HIF-2-driven VEGF in 786-O cells. The format is cell-based. Particulars: 2 μM. On the procedure: as §1, §2
Cells were plated on 6cm dishes at 80% confluency and incubated overnight under normoxic conditions. The cells were then treated with compound and incubated for 18 hours in hypoxic conditions. After treatment, the cells were washed with PBS and lysed under hypoxic conditions. The total RNA was extracted from the cells using a commercial RNA extraction kit (Fisher Scientific) following the manufacturer's instructions. […]

The test system of assay [3] is RCC associated with VHL disease. The arrangement: method as in PMID 34453144. The note with it: phase 2 clinical trial, all partial responses; cited from earlier work.
The target of the next assay is T1, HIF-1α PAS-B domain (Homo sapiens, UniProt Q16665).
T1 construct: made in house
The assay can be described thus: MST binding to the PAS-B domain of HIF-1α. The note with it: MST; for Kd: mean ± SEM, n = 2 (n = 1 for most C1 analogues, n = 3 in Figure S2), read-out: KD for HIF-1α PAS-B. On the procedure:
(§4) All reagents were purchased from Fisher Scientific or Sigma Aldrich UK unless specified otherwise.
(§5) Restriction enzymes and microbiology reagents were purchased from New England Biolabs Inc., Fisher Scientific (UK) or Promega (UK) and were used as directed by the manufacturer. Primers and oligonucleotides were synthesised by Integrated DNA Technologies (UK). DNA sequencing was carried out by Eurofins MWG Operon (Germany).
(§6) Construction of the RTHS and SICLOPPS library, screening, purification of recombinant HIF proteins, and the PLA was conducted as previously described in Miranda et al., J. Am. Chem. Soc., 2013, 135(28); […]
(§7) Protein labelling with MST dye
(§8) Protein was buffer exchanged from storage buffer into labelling buffer (0.1 M NaHCO3, pH 8.5) using a PD spintrap G-25 column (GE healthcare). The protein concentration was then adjusted to 20 µM.
(§9) The commercially sourced MST dye (NanoTemper) was prepared as a 470 µM solution in DMSO, which was then further diluted to 60 µM using labelling buffer. To the protein solution was added an equal volume of dye solution, and the labelling reaction was left for 1 hour in the dark at room temperature.
(§10) The labelled protein was separated from unreacted dye by elution through a PD minitrap G-25 column (GE healthcare). Labelled protein was then aliquoted and stored at -80 °C. Extent of labelling was measured by the absorbance obtained using the UV-vis mode on a NanoDrop ND-1000 Spectrophotometer (NanoDrop Technologies, USA).
(§11) Labelled protein was thawed on ice and diluted to 50 nM in assay buffer containing 50 mM Tris pH 8.0, 150 mM NaCl, 5% (v/v) glycerol, 1 mM TCEP and 0.05% TWEEN-20. The protein solution was then centrifuged at 12000 rpm for 15 minutes at 4 °C and left on ice. Compounds were prepared and serially diluted in DMSO at 10x assay concentration, before diluting to 2x assay concentration in assay buffer.
(§12) The 2x compound solutions were then mixed 1:1 (v/v) with 50 nM labelled protein solution and left to incubate for 1 hour at room temperature. Solutions were then loaded into Monolith NT.115 Premium Capillaries (NanoTemper) and placed in the sample tray. MST experiments were carried out

The next assay deals with T2, HIF-2α PAS-B domain (Homo sapiens, UniProt Q99814).
T2 construct: made in house
The assay can be described thus: MST binding to the PAS-B domain of HIF-2α. The note with it: MST; for Kd: mean (n = 2) ± SEM. On the procedure: as §4, §5, §6, §7, §8, §9, §10, §11, §12

Assay [4] has as its system HIF-driven expression of YFP in T-REx-293 reporter cell line. The assay can be described thus: HRE-YFP reporter assay in hypoxia. The class given is cell-based, human. The note with it: T-Rex-293 HRE-YFP reporter. From the text: Following in vitro characterization and optimization of binding, we next assessed the effect of our cyclic peptides in mammalian cells. A cell line with a stably integrated reporter was constructed, in which the expression of yellow fluorescent protein (YFP) was placed under the control of a HRE. Thus, hypoxia would be expected to increase YFP expression (and subsequent fluorescence) in these cells, whereas treatment with a cell-permeable HIF inhibitor would be expected to reduce this fluorescence signal. A fusion cassette was designed containing the YFP gene preceded by three copies of the HRE sequence. This cassette was stably integrated into T-REx-293 cells as previously described.[12] […] The effect of this compound on the viability of T-Rex-293 was assessed with no effect observed at doses up to 75 μM (Figure S9a). […] It should be noted that the relative activity of each compound in this assay will be a combination of its cell permeability and HIF-inhibiting activity. […] We therefore continued to further characterize the cell activity of the 4-iodo-phenylalanine derivative. […]
Generation of HRE-eYFP integrated cell line
The Flp-In System (Fisher) was used to generate a constitutive expression cell line that expresses eYFP under the control of the VEGF HRE. The coding sequence of the yellow fluorescent protein (eYFP) was cloned downstream of the VEGF HRE sequence in the pcDNA5 plasmid, such that the entire cassette was under the regulation of a Tet-On gene expression system. The plasmid was transfected into a human embryonic kidney cell line (Flp-In™-293) and integrated using the manufacturer’s protocol.
Activity Assessment using Flp-In-HRE-eYFP cell line
The Flp-In-HRE-eYFP cells were plated on 24-well plates at 80% confluency and incubated overnight under normoxic conditions. The cells were then treated with different concentrations of compound and incubated for 18 hours under hypoxic conditions. After treatment, the cells were washed with PBS and lysed to extract the total cellular protein. The cell extract was cold centrifuged for 20 minutes at 14,000 RPM. An equal amount of the supernatant from each treatment was plated on a 96-well plate, and the emission of eYFP was measured using a microplate reader. […]

Where a SMILES comes first, the peptide text is derived from it. [ ]: non-standard residue; d: D form. Phe(4-NO2) = N[C@@H](Cc1ccc([N+](=O)[O-])cc1)C(=O)O; Bpa = N[C@@H](Cc1ccc(C(=O)c2ccccc2)cc1)C(=O)O

T1 sequence (Q16665 238-349 limits assumed): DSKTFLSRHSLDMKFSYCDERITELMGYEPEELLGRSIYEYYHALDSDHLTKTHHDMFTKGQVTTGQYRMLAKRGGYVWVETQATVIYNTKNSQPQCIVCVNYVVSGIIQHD
T2 sequence (Q99814 240-350 limits assumed): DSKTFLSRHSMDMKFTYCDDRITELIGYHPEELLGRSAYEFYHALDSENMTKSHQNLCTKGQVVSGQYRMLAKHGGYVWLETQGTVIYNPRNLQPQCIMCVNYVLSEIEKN

As to `N#Cc1cc(F)cc(Oc2ccc(S(=O)(=O)C(F)F)c3c2CC(F)(F)[C@H]3O)c1` [PT2399, reference compound], in assay [1], the “inhibition of hypoxia-driven expression of CAIX” value is given as “did not inhibit” and the “inhibition of hypoxia-driven expression of VEGF” value is given as “did not inhibit”. Further, in assay [2], the “drop in CAIX transcription” value came to 23% and the “drop in VEGF transcription” value came to 53%. In addition, in the assay with VEGF gene in 786-O cells, the “decrease in HIF-2-driven VEGF transcription” value stood at 50%.

As to `CS(=O)(=O)c1ccc(Oc2cc(F)cc(C#N)c2)c2c1[C@H](O)[C@H](F)[C@@H]2F` [belzutifan], in assay [3], the patients responded was 49%.

For the molecule `CC[C@H](C)[C@@H]1NC(=O)[C@H](CC(C)C)NC(=O)[C@H](CC(C)C)NC(=O)[C@H](CCCNC(=N)N)NC(=O)[C@H](CS)NC(=O)[C@H](Cc2ccccc2)NC1=O` [cyclo-CRLLIF] (cyclo(CRLLIF); ring closure inferred), the “Hill slope of binding curve to HIF-1α” value on HIF-1α PAS-B domain is recorded as 1.22. Moreover, the “Hill slope of binding curve to HIF-2α” value at HIF-2α PAS-B domain turned out to be 1.45.

Regarding `CC[C@H](C)[C@@H]1NC(=O)[C@H](CC(C)C)NC(=O)[C@H](CCCNC(=N)N)NC(=O)[C@H](CS)NC(=O)[C@H](Cc2ccccc2)NC(=O)[C@H](C)NC1=O` [cyclo-CRLIAF], the Kd on HIF-1α PAS-B domain and at HIF-2α PAS-B domain was greater than 100 µM throughout.

Turning to `CC[C@H](C)[C@@H]1NC(=O)[C@H](CC(C)C)NC(=O)[C@H](CCCNC(=N)N)NC(=O)[C@H](CS)NC(=O)[C@H](Cc2ccc([N+](=O)[O-])cc2)NC(=O)[C@H]([C@@H](C)CC)NC1=O` [NO2, cyclo-CRLII(4-NO2)F] (cyclo(CRLII[Phe(4-NO2)])), the Kd (commonly a measure of binding affinity in units of concentration) at HIF-1α PAS-B domain worked out at 3.3 ± 0.1 µM. For the same molecule, in assay [4], the “relative activity among the 9 most potent cyclo-CRLIIF derivatives on YFP expression” value is reported as “least active”.

As to `CC[C@H](C)[C@@H]1NC(=O)[C@H](CC(C)C)NC(=O)[C@H](C)NC(=O)[C@H](CS)NC(=O)[C@H](Cc2ccccc2)NC(=O)[C@H]([C@@H](C)CC)NC1=O` [cyclo-CALIIF] (cyclo(ALIIFC)), the results for the Kd at HIF-1α PAS-B domain and on HIF-2α PAS-B domain were 30.6 ± 0.3 µM and 12.5 ± 0.4 µM, respectively.

With `CC[C@H](C)[C@@H]1NC(=O)[C@H](C)NC(=O)[C@H](CC(C)C)NC(=O)[C@H](CCCNC(=N)N)NC(=O)[C@H](CS)NC(=O)[C@H](Cc2ccccc2)NC1=O` [cyclo-CRLAIF] (cyclo(CRLAIF)), the Kd on HIF-1α PAS-B domain worked out at 12.8 ± 3.6 µM; at HIF-2α PAS-B domain, 61 ± 9.1 µM.

As to `CC[C@H](C)[C@@H]1NC(=O)[C@H](CC(C)C)NC(=O)[C@H](CCCNC(=N)N)NC(=O)[C@H](CS)NC(=O)[C@H](C)NC(=O)[C@H]([C@@H](C)CC)NC1=O` [cyclo-CRLIIA], the Kd at HIF-1α PAS-B domain was 80.2 ± 27.3 µM; on HIF-2α PAS-B domain, greater than 100 µM.

On to `CC[C@H](C)[C@@H]1NC(=O)[C@H](CC(C)C)NC(=O)[C@H](CCCNC(=N)N)NC(=O)[C@H](CS)NC(=O)[C@H](Cc2ccc(C(=O)c3ccccc3)cc2)NC(=O)[C@H]([C@@H](C)CC)NC1=O` [(4-Bz)F, cyclo-CRLII(4-Bz)F] (cyclo([Bpa]CRLII)), for which the “relative activity among the 9 most potent cyclo-CRLIIF derivatives on YFP expression” value in assay [4] is listed as “most active”.

Consider `CC[C@H](C)[C@@H]1NC(=O)[C@H](C)NC(=O)[C@H](CCCNC(=N)N)NC(=O)[C@H](CS)NC(=O)[C@H](Cc2ccccc2)NC(=O)[C@H]([C@@H](C)CC)NC1=O` [cyclo-CRAIIF] (cyclo(CRAIIF)), for which the Kd on HIF-1α PAS-B domain was found to be 52.7 ± 5.6 µM; at HIF-2α PAS-B domain, 52.3 ± 6.6 µM.
